Experimental data from patent US12636312B2, “Gold clusters (AuCs), composition and method for treatment of liver cirrhosis” (Wuhan Vast Conduct Science Foundation CO., LTD., priority 2020, dated 2026).

Tests used:
[1] = test system: cirrhotic model mice; test: Pathological examination of liver (HE staining, Masson staining) in CCl4-induced liver cirrhosis model mice, Embodiment 3; assay type: in vivo, C57BL/6N mice; settings: 25 mg/kg intragastrically 20 days
Source text: (§1) 120 SPF male C57BL/6N mice, 6-8 weeks old and 16-20 g body weight, were purchased from Beijing Huafukang Experimental Animal Technology Co., Ltd. (production license number: SOCK (Jing) 2019-0008). According to body weight, they were randomly divided into 12 groups (n=10): blank control group, model group, positive control group, A-01 low dose group, A-01 high dose group, A-02 low dose group, A-02 high dose group, B-01 low-dose group, B-01 high-dose group, B-02 low-dose group, B-02 high-dose group, and C high-dose group.
Except for the blank control group, liver cirrhosis model of mice in other groups was prepared by the method of carbon tetrachloride (CCl4)-induction treatment. The modeling protocol was as follows: (1) Each mouse was intraperitoneally injected with 10% CCl4 (diluted with olive oil) at 7 μL/g body weight, twice a week for a total of 8 weeks; mice of the blank control group were injected intraperitoneally with the same amount of olive oil solvent. (2) from the 6th week, two mice were selected and killed 48 hours after the last injection every week. The appearance of the liver was observed. After the appearance was in line with the characteristics of cirrhosis (the 8th week), the liver tissue was fixed with formalin. HE staining and Masson staining were used to evaluate the model of cirrhosis. […]

[2] = test system: cirrhotic model mice; test: Serum biochemical testing (ALT, AST, TBil, MAO, ALB) in CCl4-induced liver cirrhosis model mice, Embodiment 3; assay type: in vivo
Source text: as §1
Except for the blank control group, liver cirrhosis model of mice in other groups was prepared by the method of carbon tetrachloride (CCl4)-induction treatment. The modeling protocol was as follows: (1) Each mouse was intraperitoneally injected with 10% CCl4 (diluted with olive oil) at 7 μL/g body weight, twice a week for a total of 8 weeks; mice of the blank control group were injected intraperitoneally with the same amount of olive oil solvent. (2) from the 6th week, two mice were selected and killed 48 hours after the last injection every week. The appearance of the liver was observed. After the appearance was in line with the characteristics of cirrhosis (the 8th week), the liver tissue was fixed with formalin. HE staining and Masson staining were used to evaluate the model of cirrhosis.
After the successful modeling, the mice in the positive control group were given intragastrically 25 mg/kg sorafenib; the mice in the low or high dose groups of A-01, A-02, B-01 and B-02 were given by intraperitoneal injection at 2.5 or 10 mg/kg respectively of the corresponding test material; the mice in the C high dose group were given by intraperitoneal injection at a dose of 40 mg/kg of C; and the mice in the blank control group and the model group were given intraperitoneally physiological saline at 10 mL/kg. The administration was once a day for 20 consecutive days.
After the administration was completed, blood was collected from mouse orbit, and sera were obtained for biochemical testing of albumin (ALbumin, ALB), total bilirubin (TBil), alanine Alanine aminotransferase (ALT), aspartate aminotransferase (AST) and monoamine oxidase (MAO) using Zhongsheng Beikong Kit and biochemical analyzer (Siemens). The detection method was performed in strict accordance with the kit instructions.

[3] = 25 mg/kg intragastrically 20 days
[4] = 25 mg/kg intragastrically 20 days, listed as positive control
[5] = 25 mg/kg intragastrically 20 days, listed as positive control drug

`CNC(=O)c1cc(Oc2ccc(NC(=O)Nc3ccc(Cl)c(C(F)(F)F)c3)cc2)ccn1` [sorafenib, Sorafenib] was tested, and the “HE staining: liver damages versus model group” value [1] was “significant reduction of liver damages”, the “serum ALT level versus model group” value [2, 3] was “significantly reduced” and the “serum AST level versus model group” value [2, 3] was “significantly reduced”. The “serum TBIL level versus model group” value [2, 3] was “significantly reduced”, the “serum ALB level versus model group” value [2, 4] was “did not significantly affect” and the “serum MAO activity versus model group” value [2, 4] was “did not decrease”. For the same compound, the “serum ALB level versus model group” value [2, 5] was “no significant effect”, the “serum MAO activity versus model group” value [2, 5] was “no effect” and the “serum MAO activity” value ([2]; 25 mg/kg intragastrically 20 days, model group 21.5±0.7) was 21.3±2.1 U/L. For the same compound, the “serum AST activity” value ([2]; 25 mg/kg intragastrically 20 days, model group 192.0±11.3) was 165.5±11.6 U/L and the “serum ALT activity” value ([2]; 25 mg/kg intragastrically once a day for 20 days, model group 188.5±4.9) was 42.8±5.4 U/L.
